Test results as given in the supplement of paper PMC10307832.

compound: CC(C)C[C@@H](C(=O)N[C@H](C(=O)OC1CCCC1)c1ccccc1)[C@H](O)C(=O)NO [Tosedostat] + C[C@@H](Oc1cc(-c2cnn(C3CCNCC3)c2)cnc1N)c1c(Cl)ccc(F)c1Cl [Crizotinib] (partner 1 µM); assay: relative viability (nuclei count vs DMSO), 5 days (fraction); higher = more cells survive; conditions: first compound 0.02 µM
In short: (§1)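 Five library-drug doses in √10 steps were combined with a fixed anchor-drug dose, or a single drug was given alone, by pin tool to lung cancer cell lines in 1536-well plates the day after seeding. Nuclei were stained and counted after 5 days. Relative viability is the nuclei count in treated wells over that in vehicle wells, taken as the median of duplicate plates.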

Q: NCI-H1755 was tested. Which relative viability did it give?
A: 0.933

Q: Which relative viability does the source give for NCI-H838 here?
A: 0.969

Q: LK-2 was tested. Which relative viability did it give?
A: 0.218

Q: NCI-H2347 was tested. Which relative viability did it give?
A: 0.818

Q: How did the relative viability turn out when SK-MES-1 was run?
A: 1.06

Q: How did the relative viability turn out when H3255 was run?
A: 0.976

Q: IA-LM was tested. Which relative viability did it give?
A: 0.937

Q: How did the relative viability turn out when ChaGo-K-1 was run?
A: 1.05

Q: NCI-H2170 was tested. Which relative viability did it give?
A: 1.17

Q: For A549, which relative viability is on record?
A: 0.869

Q: Which relative viability does the source give for NCI-H441 here?
A: 0.648

Q: How did the relative viability turn out when NCI-H1299 was run?
A: 1.05

Q: With NCI-H1650 as the cell line, how does the relative viability read?
A: 0.988

same assay, conditions: first compound 0.06325 µM

Q: With SK-LU-1 as the cell line, how does the relative viability read?
A: 0.775

Q: Which relative viability does the source give for NCI-H1703 here?
A: 0.643

Q: With EBC-1 as the cell line, how does the relative viability read?
A: 0.185

Q: How did the relative viability turn out when NCI-H1792 was run?
A: 0.991

Q: How did the relative viability turn out when NCI-H2087 was run?
A: 0.823

Q: With NCI-H596 as the cell line, how does the relative viability read?
A: 1.07

Q: For NCI-H1355, which relative viability is on record?
A: 1.09

Q: How did the relative viability turn out when SW 1573 was run?
A: 0.868

Q: For LCLC-103H, which relative viability is on record?
A: 1.03

Q: For NCI-H727, which relative viability is on record?
A: 0.784

Q: For NCI-H2405, which relative viability is on record?
A: 0.772

Q: For EMC-BAC-2, which relative viability is on record?
A: 0.724

Q: NCI-H23 was tested. Which relative viability did it give?
A: 0.494

Q: How did the relative viability turn out when Calu-6 was run?
A: 0.755

Q: Which relative viability does the source give for HCC-366 here?
A: 0.532

Q: Which relative viability does the source give for NCI-H1755 here?
A: 0.846

Q: How did the relative viability turn out when NCI-H838 was run?
A: 0.92

Q: For LK-2, which relative viability is on record?
A: 0.225

Q: NCI-H2347 was tested. Which relative viability did it give?
A: 0.666

Q: With SK-MES-1 as the cell line, how does the relative viability read?
A: 0.988

Q: Which relative viability does the source give for H3255 here?
A: 0.846

Q: With IA-LM as the cell line, how does the relative viability read?
A: 0.879

Q: For ChaGo-K-1, which relative viability is on record?
A: 1.03

Q: With NCI-H2170 as the cell line, how does the relative viability read?
A: 1.12

Q: Which relative viability does the source give for A549 here?
A: 0.726

Q: How did the relative viability turn out when NCI-H441 was run?
A: 0.761

Q: How did the relative viability turn out when NCI-H1299 was run?
A: 0.919

Q: With NCI-H1650 as the cell line, how does the relative viability read?
A: 0.937

same assay, conditions: first compound 0.2 µM

Q: For SK-LU-1, which relative viability is on record?
A: 0.731

Q: Which relative viability does the source give for NCI-H1703 here?
A: 0.548

Q: Which relative viability does the source give for EBC-1 here?
A: 0.197

Q: With NCI-H1792 as the cell line, how does the relative viability read?
A: 1.04

Q: For NCI-H2087, which relative viability is on record?
A: 0.643

Q: NCI-H596 was tested. Which relative viability did it give?
A: 1.13

Q: Which relative viability does the source give for NCI-H1355 here?
A: 1.06

Q: Which relative viability does the source give for SW 1573 here?
A: 0.637

Q: For LCLC-103H, which relative viability is on record?
A: 1.06

Q: For NCI-H727, which relative viability is on record?
A: 0.658

Q: How did the relative viability turn out when NCI-H2405 was run?
A: 0.825

Q: EMC-BAC-2 was tested. Which relative viability did it give?
A: 0.742

Q: With NCI-H23 as the cell line, how does the relative viability read?
A: 0.442

Q: For Calu-6, which relative viability is on record?
A: 0.762

Q: With HCC-366 as the cell line, how does the relative viability read?
A: 0.432

Q: How did the relative viability turn out when NCI-H1755 was run?
A: 0.876

Q: Which relative viability does the source give for NCI-H838 here?
A: 0.826

Q: How did the relative viability turn out when LK-2 was run?
A: 0.232

Q: NCI-H2347 was tested. Which relative viability did it give?
A: 0.676

Q: Which relative viability does the source give for SK-MES-1 here?
A: 0.983

Q: Which relative viability does the source give for H3255 here?
A: 0.812

Q: IA-LM was tested. Which relative viability did it give?
A: 0.776

Q: With ChaGo-K-1 as the cell line, how does the relative viability read?
A: 1.14

Q: Which relative viability does the source give for NCI-H2170 here?
A: 1.19

Q: For A549, which relative viability is on record?
A: 0.702

Q: Which relative viability does the source give for NCI-H441 here?
A: 0.496

Q: NCI-H1299 was tested. Which relative viability did it give?
A: 0.933

Q: How did the relative viability turn out when NCI-H1650 was run?
A: 1.07

same assay, conditions: first compound 0.6325 µM

Q: Which relative viability does the source give for SK-LU-1 here?
A: 0.693

Q: NCI-H1703 was tested. Which relative viability did it give?
A: 0.38

Q: For EBC-1, which relative viability is on record?
A: 0.179

Q: With NCI-H1792 as the cell line, how does the relative viability read?
A: 0.963

Q: Which relative viability does the source give for NCI-H2087 here?
A: 0.731

Q: For NCI-H596, which relative viability is on record?
A: 1.15

Q: For NCI-H1355, which relative viability is on record?
A: 0.976

Q: SW 1573 was tested. Which relative viability did it give?
A: 0.648

Q: With LCLC-103H as the cell line, how does the relative viability read?
A: 1.13

Q: NCI-H727 was tested. Which relative viability did it give?
A: 0.557

Q: How did the relative viability turn out when NCI-H2405 was run?
A: 0.771

Q: EMC-BAC-2 was tested. Which relative viability did it give?
A: 0.703

Q: Which relative viability does the source give for NCI-H23 here?
A: 0.341

Q: Which relative viability does the source give for Calu-6 here?
A: 0.682

Q: With HCC-366 as the cell line, how does the relative viability read?
A: 0.465

Q: With NCI-H1755 as the cell line, how does the relative viability read?
A: 0.856

Q: For NCI-H838, which relative viability is on record?
A: 0.818

Q: LK-2 was tested. Which relative viability did it give?
A: 0.249

Q: Which relative viability does the source give for NCI-H2347 here?
A: 0.747

Q: With SK-MES-1 as the cell line, how does the relative viability read?
A: 0.909

Q: With H3255 as the cell line, how does the relative viability read?
A: 0.669

Q: IA-LM was tested. Which relative viability did it give?
A: 0.692

Q: With ChaGo-K-1 as the cell line, how does the relative viability read?
A: 1.01

Q: Which relative viability does the source give for NCI-H2170 here?
A: 1.22

Q: Which relative viability does the source give for A549 here?
A: 0.652

Q: With NCI-H441 as the cell line, how does the relative viability read?
A: 0.335

Q: NCI-H1299 was tested. Which relative viability did it give?
A: 0.926

Q: Which relative viability does the source give for NCI-H1650 here?
A: 0.86

same assay, conditions: first compound 2 µM

Q: For SK-LU-1, which relative viability is on record?
A: 0.871

Q: Which relative viability does the source give for NCI-H1703 here?
A: 0.597

Q: EBC-1 was tested. Which relative viability did it give?
A: 0.153

Q: With NCI-H1792 as the cell line, how does the relative viability read?
A: 1.03

Q: For NCI-H2087, which relative viability is on record?
A: 0.716

Q: How did the relative viability turn out when NCI-H596 was run?
A: 0.825

Q: With NCI-H1355 as the cell line, how does the relative viability read?
A: 0.813

Q: With SW 1573 as the cell line, how does the relative viability read?
A: 0.713

Q: For LCLC-103H, which relative viability is on record?
A: 1.02

Q: NCI-H727 was tested. Which relative viability did it give?
A: 0.513

Q: For NCI-H2405, which relative viability is on record?
A: 0.791

Q: Which relative viability does the source give for EMC-BAC-2 here?
A: 0.536

Q: NCI-H23 was tested. Which relative viability did it give?
A: 0.206

Q: For Calu-6, which relative viability is on record?
A: 0.415

Q: With HCC-366 as the cell line, how does the relative viability read?
A: 0.325

Q: How did the relative viability turn out when NCI-H1755 was run?
A: 0.771

Q: With NCI-H838 as the cell line, how does the relative viability read?
A: 0.948

Q: LK-2 was tested. Which relative viability did it give?
A: 0.215

Q: For NCI-H2347, which relative viability is on record?
A: 0.771

Q: With SK-MES-1 as the cell line, how does the relative viability read?
A: 0.856

Q: H3255 was tested. Which relative viability did it give?
A: 0.827

Q: For IA-LM, which relative viability is on record?
A: 0.602

Q: With ChaGo-K-1 as the cell line, how does the relative viability read?
A: 0.84

Q: For NCI-H2170, which relative viability is on record?
A: 1.37

Q: With A549 as the cell line, how does the relative viability read?
A: 0.683

Q: NCI-H441 was tested. Which relative viability did it give?
A: 0.401

Q: With NCI-H1299 as the cell line, how does the relative viability read?
A: 0.873

Q: With NCI-H1650 as the cell line, how does the relative viability read?
A: 1.01

compound: CC(C)C[C@@H](C(=O)N[C@H](C(=O)OC1CCCC1)c1ccccc1)[C@H](O)C(=O)NO [Tosedostat] + CS(=O)(=O)CCNCc1ccc(-c2ccc3ncnc(Nc4ccc(OCc5cccc(F)c5)c(Cl)c4)c3c2)o1 [Lapatinib] (partner 2 µM); assay: as above; conditions: first compound 0.02 µM
In short: as §1

Q: Which relative viability does the source give for SK-LU-1 here?
A: 0.915

Q: Which relative viability does the source give for NCI-H1703 here?
A: 1.35

Q: For EBC-1, which relative viability is on record?
A: 0.241

Q: Which relative viability does the source give for NCI-H1792 here?
A: 0.988

Q: Which relative viability does the source give for NCI-H2087 here?
A: 1.08
